Ring closure, isolated yield and IC50 data for 20 molecules are collected here from patent US11814391B2, “Macrocyclic compounds for the treatment of medical disorders” (Achillion Pharmaceuticals, Inc., priority 2018, dated 2023).

One may read the IC50 as the concentration at which inhibition is half-maximal.

Structures are written as SMILES. Where two headings read alike, the source gives them in different places.

For data set [1] the following is noted: rcm bond, 17-membered ring, Grubbs II, toluene, 80.0 °C.
The target of the next data set is Human Factor D (Homo sapiens (Human), UniProt P00746). Kind of data set: Human Factor D assay. It counts as biochemical. As to conditions: Human Factor D 80 nM, substrate Z-L-Lys-SBzl, A405; read-out: IC50 (Stars). A digest of the protocol: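 Serum-purified human Factor D (80 nM final) preincubated 5 min at room temperature with compound in 50 mM Tris, 1M NaCl, pH 7.5. Reaction started with Z-L-Lys-SBzI and DTNB (100 μM each); A405 read every 30 s for 30 min. IC50 from nonlinear regression of reaction rates versus compound concentration.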
Human Factor D, sequence (P00746 26-253): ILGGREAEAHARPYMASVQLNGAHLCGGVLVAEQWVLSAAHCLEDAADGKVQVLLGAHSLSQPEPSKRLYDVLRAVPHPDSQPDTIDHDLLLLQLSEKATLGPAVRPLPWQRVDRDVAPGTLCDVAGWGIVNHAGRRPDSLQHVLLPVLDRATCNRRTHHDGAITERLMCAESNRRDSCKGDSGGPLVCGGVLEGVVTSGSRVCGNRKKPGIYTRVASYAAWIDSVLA

Regarding `C=C(C)c1cc2c3c(c1)c(C(C)=O)nn3CC(=O)N1[C@H](C(=O)Nc3nc(C(F)(F)F)ccc3C)C[C@@]3(CNC(=O)CCCC=CC2)C[C@@H]13`, the ring closure, isolated yield in data set [1] (from C=CCCCC(=O)NC[C@@]12C[C@@H](C(=O)Nc3nc(C(F)(F)F)ccc3C)N(C(=O)Cn3nc(C(C)=O)c4cc(C(=C)C)cc(CC=C)c43)[C@@H]1C2, 1.43 mM, 16.0 h) worked out at 21.7%.
`CC(=O)c1nn2c3c(cc(-c4cnc(C)nc4)cc13)CC=CCCC(C)(C)C(=O)NC[C@@]13C[C@@H](C(=O)Nc4nc(C(F)(F)F)ccc4C)N(C(=O)C2)[C@@H]1C3`: the ring closure, isolated yield in data set [1] (from C=CCCC(C)(C)C(=O)NC[C@@]12C[C@@H](C(=O)Nc3nc(C(F)(F)F)ccc3C)N(C(=O)Cn3nc(C(C)=O)c4cc(-c5cnc(C)nc5)cc(CC=C)c43)[C@@H]1C2, 1.6 mM, 16.0 h) came to 71.3%.
For the molecule `CC(=O)c1nn2c3c(cc(-c4cnc(C)nc4)cc13)CC=CCCCC(=O)N(C)C[C@@]13C[C@@H](C(=O)Nc4cc(F)cc(Br)n4)N(C(=O)C2)[C@@H]1C3`, the ring closure, isolated yield in data set [1] (from C=CCCCC(=O)N(C)C[C@@]12C[C@@H](C(=O)Nc3cc(F)cc(Br)n3)N(C(=O)Cn3nc(C(C)=O)c4cc(-c5cnc(C)nc5)cc(CC=C)c43)[C@@H]1C2, 1.29 mM, 16.0 h) was found to be 94.5%.
As to `CC(=O)c1nn2c3c(cc(-c4cnc(C)nc4)cc13)N(C(=O)OCc1ccccc1)CC=CCCC(=O)NCC13CC(C(=O)Nc4nc(C(F)(F)F)ccc4C)N(C(=O)C2)C1C3` (stereo not drawn), in data set [1] (from C=CCCC(=O)NCC12CC(C(=O)Nc3nc(C(F)(F)F)ccc3C)N(C(=O)Cn3nc(C(C)=O)c4cc(-c5cnc(C)nc5)cc(N(CC=C)C(=O)OCc5ccccc5)c43)C1C2, 1.42 mM), the ring closure, isolated yield came to 57.2%.
In the case of `CC(=O)c1nn2c3c(cc(-c4cnc(C)nc4)cc13)NC(=O)CCC=CCOCC13CC(C(=O)Nc4nc(C(F)(F)F)ccc4C)N(C(=O)C2)C1C3` (stereo not drawn), the ring closure, isolated yield in data set [1] (from C=CCCC(=O)Nc1cc(-c2cnc(C)nc2)cc2c(C(C)=O)nn(CC(=O)N3C(C(=O)Nc4nc(C(F)(F)F)ccc4C)CC4(COCC=C)CC34)c12, 1.35 mM) turned out to be 65.8%.
For the molecule `CC(=O)c1nn2c3c(cc(-c4nnc(C)o4)cc13)CC=CCCCC(=O)NC[C@@]13C[C@@H](C(=O)Nc4nc(C(F)(F)F)ccc4C)N(C(=O)C2)[C@@H]1C3`, the ring closure, isolated yield in data set [1] (from C=CCCCC(=O)NC[C@@]12C[C@@H](C(=O)Nc3nc(C(F)(F)F)ccc3C)N(C(=O)Cn3nc(C(C)=O)c4cc(-c5nnc(C)o5)cc(CC=C)c43)[C@@H]1C2, 1.36 mM, 16.0 h) is 83.2%.
In the case of `CC(=O)c1nn2c3c(cc(C)cc13)CC=CCCCC(=O)NC[C@@]13C[C@@H](C(=O)Nc4nc(C(F)(F)F)ccc4C)N(C(=O)C2)[C@@H]1C3`, the ring closure, isolated yield in data set [1] (from C=CCCCC(=O)NC[C@@]12C[C@@H](C(=O)Nc3nc(C(F)(F)F)ccc3C)N(C(=O)Cn3nc(C(C)=O)c4cc(C)cc(CC=C)c43)[C@@H]1C2, 1.77 mM, 16.0 h) amounted to 86.7%; in data set [1] (from C=CCCCC(=O)NC[C@@]12C[C@@H](C(=O)Nc3nc(C(F)(F)F)ccc3C)N(C(=O)Cn3nc(C(C)=O)c4cc(C)cc(CC=C)c43)[C@@H]1C2, 1.88 mM, 12.0 h) it was 62.6%.
In data set [1] (from C=CCCCC(=O)NC[C@@]12C[C@@H](C(=O)Nc3nc(C(F)(F)F)ccc3C)N(C(=O)Cn3nc(C(C)=O)c4cc(C=C(C)C)cc(CC=C)c43)[C@@H]1C2, 1.67 mM, 16.0 h), `CC(=O)c1nn2c3c(cc(C=C(C)C)cc13)CC=CCCCC(=O)NC[C@@]13C[C@@H](C(=O)Nc4nc(C(F)(F)F)ccc4C)N(C(=O)C2)[C@@H]1C3` returned a ring closure, isolated yield of 69.4%.
The molecule `CC(=O)c1nn2c3c(cc(CCC(C)C)cc13)CC=CCCCC(=O)NC[C@@]13C[C@@H](C(=O)Nc4nc(C(F)(F)F)ccc4C)N(C(=O)C2)[C@@H]1C3` yielded a ring closure, isolated yield in data set [1] (from C=CCCCC(=O)NC[C@@]12C[C@@H](C(=O)Nc3nc(C(F)(F)F)ccc3C)N(C(=O)Cn3nc(C(C)=O)c4cc(CCC(C)C)cc(CC=C)c43)[C@@H]1C2, 1.38 mM, 16.0 h) of 27.7%.
As to `CC(=O)c1nn2c3c(cc(N4CCCC4)cc13)CC=CCCCC(=O)NC[C@@]13C[C@@H](C(=O)Nc4nc(C(F)(F)F)ccc4C)N(C(=O)C2)[C@@H]1C3`, in data set [1] (from C=CCCCC(=O)NC[C@@]12C[C@@H](C(=O)Nc3nc(C(F)(F)F)ccc3C)N(C(=O)Cn3nc(C(C)=O)c4cc(N5CCCC5)cc(CC=C)c43)[C@@H]1C2, 2.0 mM, 16.0 h), the ring closure, isolated yield came to 92.5%.
Turning to `CC(=O)c1nn2c3c(cc(-c4cnc(C)nc4)cc13)CCCCCCCCc1ccc(Br)nc1NC(=O)[C@H](C)N(C)C(=O)C2` [Compound 51, (S)-2-acetyl-16-bromo-20,21-dimethyl-4-(2-methylpyrimidin-5-yl)-6,7,8,9,10,11,12,13,20,21 - decahydropyrido[2′,3′:8,9][1,4,7]triazacyclononadecino [18,19,1-hi]indazole-19,22(18H,23H)-dione], the IC50 on Human Factor D was more than 10 µM.
With `CC(=O)c1nn2c3c(cc(NCC4CCCCC4)cc13)CCCCCCC(=O)NCC13CC(C(=O)Nc4nc(C(F)(F)F)ccc4C)N(C(=O)C2)C1C3` [Compound 52, (41R,43S,45R)-13-acetyl-15-((cyclohexylmethyl)amino)-N-(3-methyl-6-(trifluoromethyl)pyridin-2-yl)-3,7-dioxo-11H-42,6-diaza-1(1,7)-indazola-4(2,5)-bicyclo[3.1.0]hexanacyclotridecaphane-43-carboxamide], the IC50 on Human Factor D was less than 1 µM.
As to `CC(=O)c1nn2c3c(cc(-c4cnc(C)nc4)cc13)CCCCCCCCCCCO[C@@H]1CCN(C(=O)C2)[C@@H]1C(=O)NCc1cccc(Cl)c1F` [Compound 54, (42S,43R)-13-acetyl-N-(3-chloro-2-fluorobenzyl)-15-(2-methylpyrimidin-5-yl)-3-oxo-11H-5-oxa-1(1,7)-indazola-4(1,3)-pyrrolidinacyclohexadecaphane-42-carboxamide], the IC50 at Human Factor D is less than 1 µM.
Still for that read-out and setting: to `CC(=O)c1nn2c3c(cc(NC4CCCC4)cc13)CCCCCCC(=O)NCC13CC(C(=O)Nc4nc(C(F)(F)F)ccc4C)N(C(=O)C2)C1C3` [Compound 55, (41R,43S,45R)-13-acetyl-15-(cyclopentylamino)-N-(3-methyl-6-(trifluoromethyl)pyridin-2-yl)-3,7-dioxo-11H-42,6-diaza-1(1,7)-indazola-4(2,5)-bicyclo[3.1.0]hexanacyclotridecaphane-43-carboxamide] belongs less than 1 µM; to `CC(=O)c1nn2c3c(cc(-c4cnc(C)nc4)cc13)CCCCCCCCCC[C@@H](C(=O)Nc1nc(Br)ccc1C)N(C)C(=O)C2` [Compound 56, (S)-2-acetyl-N-(6-bromo-3-methylpyridin-2-yl)-17-methyl-4-(2-methylpyrimidin-5-yl)-18-oxo-6,7,8,9,10,11,12,13,14,15,16,17,18,19-tetradecahydro-[1,4]diazacycloheptadecino[16,17,1-hi]indazole-16-carboxamide], more than 10 µM; to `CC(=O)c1nn2c3c(cc(NC(=O)C4CC4)cc13)CCCCCCC(=O)NCC13CC(C(=O)Nc4nc(C(F)(F)F)ccc4C)N(C(=O)C2)C1C3` [Compound 57, (41R,43S,45R)-13-acetyl-15-(cyclopropanecarboxamido)-N-(3-methyl-6-(trifluoromethyl)pyridin-2-yl)-3,7-dioxo-11H-42,6-diaza-1(1,7)-indazola-4(2,5)-bicyclo[3.1.0]hexanacyclotridecaphane-43-carboxamide], less than 1 µM.
As for `CC(=O)c1nn2c3c(cc(-c4cnc(C)nc4)cc13)NCCCCCC(=O)NCC13CC(C(=O)Nc4nc(C(F)(F)F)ccc4C)N(C(=O)C2)C1C3` [Compound 58, (41R,43S,45R)-13-acetyl-N-(3-methyl-6-(trifluoromethyl)pyridin-2-yl)-15-(2-methylpyrimidin-5-yl)-3,7-dioxo-11H-42,6,13-triaza-1(1,7)-indazola-4(2,5)-bicyclo[3.1.0]hexanacyclotridecaphane-43-carboxamide], the IC50 on Human Factor D was less than 1 µM.
For `CC(=O)c1nn2c3c(cc(-c4cnc(C)nc4)cc13)CCCCCC(C)(C)CNC[C@@]13C[C@@H](C(=O)Nc4nc(C(F)(F)F)ccc4C)N(C(=O)C2)[C@@H]1C3` [Compound 59, (41R,43S,45R)-13-acetyl-8,8-dimethyl-N-(3-methyl-6-(trifluoromethyl)pyridin-2-yl)-15-(2-methylpyrimidin-5-yl)-3-oxo-11H-42,6-diaza-1(1,7)-indazola-4(2,5)-bicyclo[3.1.0]hexanacyclotridecaphane-43-carboxamide], the half-inhibitory concentration (IC50) at Human Factor D was less than 1 µM.
In the case of `CC(=O)c1nn2c3c(cc(-c4cnc(C)nc4)cc13)NC(=O)CCCCCOCC13CC(C(=O)Nc4nc(C(F)(F)F)ccc4C)N(C(=O)C2)C1C3` [Compound 60, (41R,43S,45S)-13-acetyl-N-(3-methyl-6-(trifluoromethyl)pyridin-2-yl)-15-(2-methylpyrimidin-5-yl)-3,12-dioxo-11H-6-oxa-42,13-diaza-1(1,7)-indazola-4(2,5)-bicyclo[3.1.0]hexanacyclotridecaphane-43-carboxamide], at Human Factor D, the 50% inhibitory concentration (IC50) is less than 1 µM.
Consider `CC(=O)c1nn2c3c(cc(-c4cnc(C)nc4)cc13)CCCCCC(C)(C)CNC[C@@]13C[C@@H](C(=O)NC4CC(C)(C)C4)N(C(=O)C2)[C@@H]1C3` [Compound 61, (41R,43S,45R)-13-acetyl-N-(3,3-dimethylcyclobutyl)-8,8-dimethyl-15-(2-methylpyrimidin-5-yl)-3-oxo-11H-42,6-diaza-1(1,7)-indazola-4(2,5)-bicyclo[3.1.0]hexanacyclotridecaphane-43-carboxamide], for which the 50% inhibitory concentration (IC50) on Human Factor D is less than 1 µM.
